The values that follow come from patent US11680050B2, “Crystalline forms of ozanimod and ozanimod hydrochloride, and processes for preparation thereof” (RECEPTOS LLC, priority 2016, dated 2023).

Assay type in all cases: physicochemical
Data set [1] in a line: Hygroscopicity assessment by dynamic vapor sorption (DVS). The following applies: for Hygroscopicity class according to the definition of hygroscopicity: Chinese Pharmacopoeia 2015, 25° C., 80% RH; for Weight gain under 80% RH: DVS, 25° C. As for the experimental part:
Dynamic Vapor Sorption (DVS) is measured via an SMS (Surface Measurement Systems Ltd.) intrinsic DVS. Typical Parameters for DVS test are as follows:
Gas and flow rate: N2, 200 mL/min
RH range: 0% RH to 95% RH […]
Dynamic vapor sorption (DVS) was applied to test hygroscopicity of Form CS1 of ozanimod hydrochloride with about 10 mg of samples.
Description and definition of hygroscopicity (Chinese Pharmacopoeia 2015 edition appendix Drug hygroscopic test guidelines, test at 25° C.+/−1° C., 80% RH). • deliquescent: Sufficient water is absorbed to form a liquid; • very hygroscopic: Increase in mass is equal to or greater than 15 percent; • hygroscopic: Increase in mass is less than 15 percent and equal to or greater than 2 percent; • slightly hygroscopic: Increase in mass is less than 2 percent and equal to or greater than 0.2 percent. • non hygroscopic or almost non hygroscopic: Increase in mass is less than 0.2 percent.

The nature of data set [2]: Stability assessment in constant temperature and humidity chambers (HPLC purity, XRPD crystalline form). The following applies: for 1 week purity % / 2 week purity % / 4 week purity %: HPLC; for Change of the crystalline form: XRPD; for Stability, overall conclusion of the storage test: after storage under all conditions tested for the form. As for the experimental part:
Three solid samples of Form CS1 were placed in constant temperature and humidity chambers at 25° C./60% RH, 40° C./75% RH and 60° C./75% RH for 4 weeks. XRPD was used to test the crystalline form at the end of week 4. HPLC was used to measure the chemical purity at the end of week 1, 2, and 4. The XRPD comparison result is shown in FIG. 31 (from top to bottom: XRPD pattern of Form CS1 before and after being stored under 25° C./60% RH, 40° C./75% RH and 60° C./75% RH for 4 weeks), and the results are shown in Table 20.
Four solid samples of Form CS2 were placed in constant temperature and humidity chambers at 25° C./60% RH, 40° C./75% RH and 60° C./75% RH for 4 weeks and 80° C. for 1 week. XRPD was used to test the crystalline form at the end of week 4. HPLC was used to measure the chemical purity at the end of week 1, 2, and 4. The XRPD comparison result is shown in FIG. 32 (from top to bottom: XRPD pattern of Form CS2 before and after being stored under 25° C./60% RH, 40° C./75% RH and 60° C./75% RH for 4 weeks and 80° C. for 1 week), and the results are shown in Table 21.
Three solid samples of Form CS3 were placed in constant temperature and humidity chambers at 25° C./60% RH, 40° C./75% RH and 60° C./75% RH for 4 weeks. XRPD was used to test the crystalline form at the end of week 4. HPLC was used to measure the chemical purity at the end of week 1, 2, and 4. The XRPD comparison pattern is shown in FIG. 33 (from top to bottom: XRPD pattern of Form CS3 before and after being stored under 25° C./60% RH, 40° C./75% RH and 60° C./75% RH for 4 weeks), and the results are shown in Table 22.
Three solid samples of Form CS5 were placed in constant temperature and humidity chambers at 25° C./60% RH, 40° C./75% RH and 60° C./75% RH for 2 weeks. XRPD was used to test the crystalline form at the […]. The XRPD comparison pattern is shown in FIG. 34 (from top to bottom: XRPD pattern of Form CS5 before and after being stored under 25° C./60% RH, 40° C./75% RH and 60° C./75% RH for 2 weeks), and the results are shown in Table 23.
Two samples of Form CS6 were placed in constant temperature and humidity chambers at 25° C./60% RH and 40° C./75% RH for 4 weeks. XRPD was used to test the crystalline form at the end of week 4. HPLC was used to measure the chemical purity at the end of week 1, 2, and 4.The XRPD comparison result is shown in FIG. 35 (from top to bottom: XRPD pattern of Form CS6 before and after being stored under 25° C./60% RH and 40° C./75% RH for 4 weeks), and the results are shown in Table 24.
Four samples of Form CS1 of ozanimod hydrochloride were placed in constant temperature and humidity chambers at 25° C./60% RH, 40° C./75% RH and 60° C./75% RH for 4 weeks and 80° C. for 1 week. XRPD was used to test the crystalline form at the end of week 4. HPLC was used to measure the chemical purity at the end of week 1, 2, and 4. The XRPD comparison pattern is shown in FIG. 36 (from top to bottom: XRPD pattern of ozanimod hydrochloride Form CS1 before and after being stored under 25° C./60% RH, 40° C./75% RH and 60° C./75% RH for 4 weeks and 80° C. for 1 week), and the results are shown in Table 25.

Data set [3] is described as follows: Particle size distribution test (laser particle size analyzer, wet process). The following applies: for MV, average particle size calculated by volume: dispersion medium Isopar G; for D10 / D50 (median diameter) / D90: volume distribution, Isopar G. The protocol:
The particle size distribution test in the present disclosure is acquired by the S3500 laser particle size analyzer of Microtrac. Microtrac S3500 is equipped with the SDC (Sample Delivery Controller). The test is carried out by wet process, and the dispersion medium is Isopar G The parameters are as follow:
Certain amount of samples of Form CS1, Form CS2, Form CS3, Form CS5, Form CS6 of ozanimod and Form CS1 of ozanimod hydrochloride were taken for particle size distribution test.

The nature of data set [4]: Solubility assessment of saturated solutions in SGF, FeSSIF and water, measured by HPLC. As for the experimental part: Form CS1 and Form CS1 of ozanimod hydrochloride were suspended into SGF (Simulated gastric fluids) and FeSSIF (Fed state simulated intestinal fluids, pH=5.0) to obtain saturated solutions. After being equilibrated for 1 h, 4 h and 24 h, concentrations of the saturated solutions were measured by HPLC.
Form CS3 and Form CS5 were suspended into SGF (Simulated gastric fluids) and water, and Form CS2 was suspended into FeSSIF (Fed state simulated intestinal fluids) to obtain saturated solutions. After being equilibrated for 1 h, 4 h and 24 h, concentrations of the saturated solutions were measured by HPLC.

Data set [5] can be described thus: Mechanical stability, manual grinding for 5 minutes in mortar, XRPD. The following applies: ground manually for 5 minutes, XRPD before and after. The protocol: Solid samples of Form CS3, Form CS5, Form CS6 of ozanimod and Form CS1 of ozanimod hydrochloride were ground manually for 5 minutes in mortar.

In brackets after ≈: the same amount, converted by molar mass. Counter-ions that a name gives are not always drawn.

The term Solubility denotes the concentration that dissolves in the medium under given conditions. The low end stands for a poorly soluble substance, the high end for a readily soluble substance. Take `CC(C)Oc1ccc(-c2nc(-c3cccc4c3CC[C@@H]4NCCO)no2)cc1C#N` [Form CS1 of ozanimod hydrochloride, ozanimod hydrochloride]: in data set [1], the “Hygroscopicity class according to the definition of hygroscopicity” value was “slightly hygroscopic (Increase in mass is less than 2 percent and equal to or greater than 0.2 percent)”. Also, the “Weight gain under 80% RH” value was 0.55% in data set [1] (hydrochloride) and 0.55% in data set [1] (listed as ozanimod hydrochloride Form CS1, hydrochloride). The “1 week purity %” value came out at 99.18% in data set [2] (25° C./60% RH, 1 week, hydrochloride); 99.15% in data set [2] (40° C./75% RH, 1 week, hydrochloride); 99.25% in data set [2] (60° C./75% RH, 1 week, hydrochloride); 99.34% in data set [2] (80° C., 1 week, hydrochloride). In addition, the “2 week purity %” value in data set [2] (25° C./60% RH, 2 weeks, hydrochloride) is 99.13%; in data set [2] (40° C./75% RH, 2 weeks, hydrochloride), 99.12%; in data set [2] (60° C./75% RH, 2 weeks, hydrochloride), 99.25%. Moreover, the “4 week purity %” value in data set [2] (25° C./60% RH, 4 weeks, hydrochloride) is recorded as 99.22%; in data set [2] (40° C./75% RH, 4 weeks, hydrochloride) it was 99.24%; in data set [2] (60° C./75% RH, 4 weeks, hydrochloride), 99.36%. The “Change of the crystalline form” value in data set [2] (25° C./60% RH, 4 weeks) was “No change”; in data set [2] (40° C./75% RH, 4 weeks) it was “No change”; in data set [2] (60° C./75% RH, 4 weeks) it was “No change”; in data set [2] (80° C., 1 week), “No change”. The “Stability, overall conclusion of the storage test” value (from here on “Stability, overall conclusion”) in data set [2] is given as “good stability”. The “MV, average particle size calculated by volume” value in data set [3] (hydrochloride) is listed as 200.7 μm. For the same compound, the D10 in data set [3] (hydrochloride) turned out to be 20.84 μm. For the same compound, the “D50 (median diameter)” value in data set [3] (hydrochloride) is listed as 180.8 μm. The compound also yielded a D90 in data set [3] (hydrochloride) of 397.7 μm. Moreover, the Solubility in data set [4] (FeSSIF (pH=5.0), 4 h, hydrochloride) worked out at 1500 µg/mL. Besides, the “Form change under mechanical stress” value in data set [5] was “No form change”.
For orientation: solubility means how much of the substance goes into solution per volume. Higher therefore signals a readily soluble substance. In the case of `CC(C)Oc1ccc(-c2nc(-c3cccc4c3CC[C@@H]4NCCO)no2)cc1C#N` [Form CS3, ozanimod], the “Weight gain under 80% RH” value in data set [1] came out at 2.25%. Besides, the “1 week purity %” value in data set [2] (25° C./60% RH, 1 week) came to 99.53%; in data set [2] (40° C./75% RH, 1 week), 99.52%; in data set [2] (60° C./75% RH, 1 week) it was 99.36%. Moreover, the “2 week purity %” value in data set [2] (25° C./60% RH, 2 weeks) turned out to be 99.30%; in data set [2] (40° C./75% RH, 2 weeks), 99.28%; in data set [2] (60° C./75% RH, 2 weeks), 98.84%. In addition, the “4 week purity %” value came out at 99.31% in data set [2] (25° C./60% RH, 4 weeks); 99.17% in data set [2] (40° C./75% RH, 4 weeks); 98.54% in data set [2] (60° C./75% RH, 4 weeks). Moreover, the “Change of the crystalline form” value in data set [2] (25° C./60% RH, 4 weeks) is “No change”; in data set [2] (40° C./75% RH, 4 weeks), “No change”; in data set [2] (60° C./75% RH, 4 weeks), “No change”. Also, the “Stability, overall conclusion” value in data set [2] is “good stability”. Further, in data set [3], the “MV, average particle size calculated by volume” value is reported as 66.62 μm. Further, in data set [3], the D10 came to 20.36 μm. Besides, the “D50 (median diameter)” value in data set [3] is listed as 51.80 μm. The same compound gave a D90 in data set [3] of 130.8 μm. The Solubility in data set [4] (SGF, 1 h) came out at 540 µg/mL (≈ 1340 µM); in data set [4] (SGF, 4 h) it was 520 µg/mL (≈ 1290 µM); in data set [4] (SGF, 24 h), 540 µg/mL (≈ 1340 µM). The same compound displayed a solubility at 1 h in data set [4] (water, thermodynamic from solid, H2O, 1 h) of 170 µg/mL (≈ 420 µM). This compound also registered a solubility at 24 h in data set [4] (water, thermodynamic from solid, H2O, 24 h) of 350 µg/mL (≈ 865 µM). For the same compound, the “Form change under mechanical stress” value in data set [5] is recorded as “No form change”.
Consider `CC(C)Oc1ccc(-c2nc(-c3cccc4c3CC[C@@H]4NCCO)no2)cc1C#N` [Form CS5, ozanimod], for which, in data set [1], the “Hygroscopicity class according to the definition of hygroscopicity” value is “slightly hygroscopic (Increase in mass is less than 2 percent and equal to or greater than 0.2 percent)”; the “Weight gain under 80% RH” value stood at 0.23%. Further, in data set [2] (25° C./60% RH, 2 weeks), the “Change of the crystalline form” value is “No change”. The “Change of the crystalline form” value in data set [2] (40° C./75% RH, 2 weeks) is “No change”. In data set [2] (60° C./75% RH, 2 weeks), the “Change of the crystalline form” value is recorded as “No change”. Further, in data set [2], the “Stability, overall conclusion” value is listed as “good stability”. Moreover, in data set [3], the “MV, average particle size calculated by volume” value was 68.84 μm; the D10 came to 6.55 μm; the “D50 (median diameter)” value was determined as 41.10 μm; the D90 is 173.3 μm. The same compound came in with a Solubility in data set [4] (H2O, 24 h) of 270 µg/mL (≈ 668 µM). For the same compound, in data set [4] (SGF, 4 h), the Solubility was 1000 µg/mL (≈ 2470 µM). The compound also came in with a Solubility in data set [4] (SGF, 24 h) of 770 µg/mL (≈ 1900 µM). This compound showed a solubility at 4 h in data set [4] (water, thermodynamic from solid, H2O, 4 h) of 260 µg/mL (≈ 643 µM). Further, the “Form change under mechanical stress” value in data set [5] is on record as “No form change”.
